1 compound from US11260047B2, “Formulations of AG10” (Eidos Therapeutics, Inc., priority 2018, dated 2022) can be followed below.

Format in all cases: in vivo
The nature of data set [1]: Pharmacokinetics of AG10 in dogs, oral gavage, Study No. 1. The settings on record: both sexes, dog, plasma. On the procedure: Pharmacokinetics of AG10 were determined when administered once daily to dogs via oral gavage at 20, 60, and 200 mg/kg for 3 days (Study No. 1). Each group consisted of two animals/sex/group. Blood samples were collected from each animal on Day 1 at pre-dose, 0.25, 0.5, 1, 2, 4, 8, 12 and 24 hours post-dose, Day 3 at pre-dose, 0.25, 0.5, 1, 2, 4, 8, 12, 24, 48 and 72 hr post-dose. Plasma samples were assayed for AG10 by LC-MS/MS. In general, no sex differences in AG10 mean Cmax and AUC0-24 values were observed; therefore, results for the 20 mg/kg dose group are presented as combined sex values in Table 1 below.

Data set [2] can be described thus: Pharmacokinetics of AG10 tablets and capsule given orally to male beagle dogs, Study No. 3. As to conditions: for Tmax / Cmax / AUC(0-t): male, beagle, dog, plasma, po; for Tmax: dogs, read-out: time to maximal concentration (T max); for Cmax / AUC(0-t): male dogs; for AUC(0-t): read-out: AUC0-24. As to the method:
AG10 was administered orally to 4 male beagle dogs each as a 50 mg tablet, 200 mg tablet, and a 200 mg capsule (No. 3). Blood samples were collected at pre-dose and approximately 0.25, 0.5, 1, 2, 4, 8, 24, 48, 72 and 96 hours post-dose. Plasma samples were assayed for AG10 by LC-MS/MS.

A short description of data set [3]: Pharmacokinetics of AG10 after oral administration in beagle dogs, Study No. 2. The settings on record: both sexes, dog, plasma, 20 mg/kg; for Cmax / AUC(0-t): 20 mg/kg oral, sex MF; for AUC(0-t): read-out: AUC0-24; for Tmax: read-out: time to maximal concentration (T max). As to the method:
The pharmacokinetics of AG10 were also determined following oral administration in non-naïve male and female beagle dogs (Study No. 2). The study design included three treatment groups (n=2/sex/group). Groups 1 and 2 received 5 mg/kg and 20 mg/kg AG10 in 0.5% methylcellulose (MC) formulations respectively. Group 3 animals received 20 mg/kg AG10 in gelatin capsule form. Blood samples were collected at pre-dose and approximately 2, 4, 6, 8, 12, and 24 hours post-dose. Plasma samples were assayed for AG10 by LC-MS/MS. Plasma exposures (AUC0-24) of AG10 in dogs administered 20 mg/kg AG10 as a suspension in 0.5% methylcellulose were similar to those obtained in Study No. 1 (Table 1). Plasma exposures of AG10 were also similar in dogs which were administered the same dose of AG10 either as a suspension in 0.5% methylcellulose or as a gelatin capsule without any excipients.

Where [4] appears, read: gelatin capsule without excipients.

In general, Cmax refers to the highest concentration seen after dosing. For the compound `Cc1n[nH]c(C)c1CCCOc1cc(C(=O)O)ccc1F` [AG10, 3-(3-(3,5-dimethyl-1H-pyrazol-4-yl)propoxy)-4-fluorobenzoic acid], the Cmax in data set [1] (0.5% MC formulation, 20 mg/kg oral gavage, sex MF combined) is 16100 ng/mL; in data set [2] (50 mg, tablet 50 mg oral), 4660 ng/mL; in data set [2] (200 mg, capsule 200 mg oral), 9330 ng/mL; in data set [2] (200 mg, tablet 200 mg oral) it was 13000 ng/mL; in data set [3] (0.5% MC formulation) it was 8100 ng/mL; in data set [3] (setting [4]) it was 10300 ng/mL. For the same compound, the AUC(0-t) was 69100 ng·h/mL in data set [1] (0.5% MC formulation, 20 mg/kg oral gavage, sex MF combined, read-out: AUC0-24); 41500 ng·h/mL in data set [2] (50 mg, tablet 50 mg oral); 65700 ng·h/mL in data set [2] (200 mg, capsule 200 mg oral); 88000 ng·h/mL in data set [2] (200 mg, tablet 200 mg oral); 71200 ng·h/mL in data set [3] (0.5% MC formulation); 89300 ng·h/mL in data set [3] (setting [4]). Moreover, the Tmax in data set [1] (po, 20 mg/kg, methylcellulose formulation, read-out: time to maximal concentration (T max)) is 26.4 ± 22.8 min; in data set [2] (50 mg, 50 mg tablets) it was 0.5 h; in data set [2] (200 mg, 200 mg capsules with excipient), 1.38 ± 0.75 h; in data set [2] (200 mg, 200 mg tablets) it was 1 h; in data set [3] (capsule formulated without excipients), 2 h; in data set [3] (methylcellulose formulation) it was 2.5 ± 1 h. Further, in data set [2] (unpaired t-test, P value 0.0788), the “Cmax, 200 mg tablets compared with 200 mg capsules” value is reported as “not significantly different”. The “AUC0-inf, 200 mg tablets compared with 200 mg capsules” value in data set [2] (unpaired t-test, P value 0.0995) is given as “not significantly different”.
